Holding throughout (type): biochemical
In one assay the target is T1, KDM4C (JMJD2C) (Homo sapiens, UniProt Q9H3R0).
T1 sequence (Q9H3R0 1-349): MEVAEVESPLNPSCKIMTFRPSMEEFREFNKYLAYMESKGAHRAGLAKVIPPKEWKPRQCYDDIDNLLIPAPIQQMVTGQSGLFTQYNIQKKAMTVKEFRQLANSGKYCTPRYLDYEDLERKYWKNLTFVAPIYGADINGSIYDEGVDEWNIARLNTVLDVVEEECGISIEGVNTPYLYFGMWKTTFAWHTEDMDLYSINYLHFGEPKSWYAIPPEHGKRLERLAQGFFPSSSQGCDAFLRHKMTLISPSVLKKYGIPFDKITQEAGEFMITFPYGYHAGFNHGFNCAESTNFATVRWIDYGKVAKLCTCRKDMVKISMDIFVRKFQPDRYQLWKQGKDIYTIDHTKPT
Briefly: Histone lysine demethylase AlphaLISA assay, KDM4C. The note with it: read-out: KDM4C HDME Inhibition IC50. Summed up:
(§1)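 Steps: enzyme equilibrated 10 min in buffer; compounds in 3% DMSO solution added, 10 min; substrate mix added (peptide, 25 μM L-Asc, 10 μM α-KG), room temperature; acceptor beads, then streptavidin donor beads, dark incubations; plate read.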
For orientation: Bead proximity is the source of the signal in Alpha formats.

The next assay addresses T2, KDM5B (PLU-1) (Homo sapiens, UniProt Q9UGL1).
T2 sequence (Q9UGL1 1-809): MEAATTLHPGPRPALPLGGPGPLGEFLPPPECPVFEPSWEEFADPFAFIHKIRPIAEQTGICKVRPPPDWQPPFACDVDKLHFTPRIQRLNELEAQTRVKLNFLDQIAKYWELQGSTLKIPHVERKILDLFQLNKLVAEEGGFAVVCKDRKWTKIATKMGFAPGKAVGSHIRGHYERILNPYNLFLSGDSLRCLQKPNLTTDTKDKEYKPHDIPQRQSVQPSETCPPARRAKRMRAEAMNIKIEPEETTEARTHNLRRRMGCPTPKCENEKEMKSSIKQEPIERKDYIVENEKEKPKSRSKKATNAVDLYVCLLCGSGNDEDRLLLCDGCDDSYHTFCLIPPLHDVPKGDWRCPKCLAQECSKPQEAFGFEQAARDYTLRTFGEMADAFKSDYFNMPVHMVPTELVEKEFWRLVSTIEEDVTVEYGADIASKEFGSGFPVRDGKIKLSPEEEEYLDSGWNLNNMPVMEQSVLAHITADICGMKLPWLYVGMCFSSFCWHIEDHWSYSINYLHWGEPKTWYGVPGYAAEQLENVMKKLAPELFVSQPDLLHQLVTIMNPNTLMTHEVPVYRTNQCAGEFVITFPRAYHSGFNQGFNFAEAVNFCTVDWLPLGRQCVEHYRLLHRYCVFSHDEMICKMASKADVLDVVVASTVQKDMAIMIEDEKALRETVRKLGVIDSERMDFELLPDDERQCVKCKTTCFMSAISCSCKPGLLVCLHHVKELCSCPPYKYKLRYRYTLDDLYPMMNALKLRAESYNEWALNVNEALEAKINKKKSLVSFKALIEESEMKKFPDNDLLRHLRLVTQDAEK
Briefly: Histone lysine demethylase AlphaLISA assay, KDM5B. As to conditions: read-out: KDM5B HDME Inhibition IC50. Summed up: as §1

The target in the next assay is T3, KDM6B (JMJD3) (Homo sapiens, UniProt O15054).
T3 construct: 1043-end; purchased BPS; host or cells: Bac (baculovirus system)
T3 sequence (O15054 1043-1682 isoform O15054-1 limits assumed): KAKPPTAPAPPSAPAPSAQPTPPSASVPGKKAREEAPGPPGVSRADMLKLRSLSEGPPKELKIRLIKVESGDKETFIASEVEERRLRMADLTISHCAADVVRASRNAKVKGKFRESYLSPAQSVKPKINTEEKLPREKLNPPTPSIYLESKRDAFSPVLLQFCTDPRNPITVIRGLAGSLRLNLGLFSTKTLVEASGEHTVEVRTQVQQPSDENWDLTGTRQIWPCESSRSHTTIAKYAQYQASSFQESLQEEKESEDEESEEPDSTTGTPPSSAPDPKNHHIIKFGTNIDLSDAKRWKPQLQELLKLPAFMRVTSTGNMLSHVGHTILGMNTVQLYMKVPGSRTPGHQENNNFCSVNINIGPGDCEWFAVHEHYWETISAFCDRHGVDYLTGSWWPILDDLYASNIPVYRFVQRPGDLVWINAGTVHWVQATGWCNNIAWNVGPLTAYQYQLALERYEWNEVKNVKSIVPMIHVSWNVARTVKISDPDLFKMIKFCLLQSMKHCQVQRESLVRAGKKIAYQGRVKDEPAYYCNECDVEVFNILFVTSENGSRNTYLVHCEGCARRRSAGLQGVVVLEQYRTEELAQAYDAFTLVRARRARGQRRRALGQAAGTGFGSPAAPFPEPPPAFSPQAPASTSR
As to the kind of experiment: Histone lysine demethylase AlphaLISA assay, KDM6B. As to conditions: read-out: KDM6B HDME Inhibition IC50. Summed up: as §1

For the next assay, the target named is T4, KDM4B (JMJD2B) (Homo sapiens, UniProt O94953).
T4 construct: 2-500; purchased BPS; host or cells: Bac (baculovirus system)
T4 sequence (O94953 2-500): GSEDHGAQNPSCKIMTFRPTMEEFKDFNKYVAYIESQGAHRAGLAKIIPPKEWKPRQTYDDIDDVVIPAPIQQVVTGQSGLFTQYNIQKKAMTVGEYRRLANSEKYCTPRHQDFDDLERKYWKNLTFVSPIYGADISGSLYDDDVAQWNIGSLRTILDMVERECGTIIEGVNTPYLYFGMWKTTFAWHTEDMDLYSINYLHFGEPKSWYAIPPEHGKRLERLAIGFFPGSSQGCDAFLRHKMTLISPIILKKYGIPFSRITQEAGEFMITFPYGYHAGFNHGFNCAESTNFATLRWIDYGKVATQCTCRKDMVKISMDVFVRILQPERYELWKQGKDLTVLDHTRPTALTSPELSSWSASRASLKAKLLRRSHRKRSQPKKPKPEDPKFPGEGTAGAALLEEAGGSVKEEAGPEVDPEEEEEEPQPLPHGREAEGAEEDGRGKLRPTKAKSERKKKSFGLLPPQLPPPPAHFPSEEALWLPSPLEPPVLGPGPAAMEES
Briefly: Histone lysine demethylase AlphaLISA assay, KDM4B. As to conditions: read-out: KDM4B HDME Inhibition IC50. The method in brief:
as §1

The next assay concerns the target T5, KDM7 (PHF8) (Homo sapiens, UniProt Q9UPP1).
T5 construct: KDM7 (PHF8); BRIC; 1-1322; Bac
Briefly: Histone lysine demethylase AlphaLISA assay, KDM7. The note with it: read-out: PHF8 HDME Inhibition IC50. The method in brief: as §1

One may read the IC50 as the concentration needed to halve the response being measured.

The structures appear in SMILES notation.

T5 sequence (Q9UPP1 37-440 limits assumed): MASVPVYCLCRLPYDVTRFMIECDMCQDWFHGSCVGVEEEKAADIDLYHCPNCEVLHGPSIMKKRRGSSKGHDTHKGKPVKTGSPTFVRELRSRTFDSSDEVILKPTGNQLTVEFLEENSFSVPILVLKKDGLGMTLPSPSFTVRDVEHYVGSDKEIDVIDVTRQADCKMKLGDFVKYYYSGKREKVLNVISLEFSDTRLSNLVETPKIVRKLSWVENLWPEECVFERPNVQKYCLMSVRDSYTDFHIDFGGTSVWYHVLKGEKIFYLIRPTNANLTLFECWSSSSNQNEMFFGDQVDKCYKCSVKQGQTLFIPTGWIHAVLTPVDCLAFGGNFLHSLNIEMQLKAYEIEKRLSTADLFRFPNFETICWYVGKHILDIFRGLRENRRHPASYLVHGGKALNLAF

For `CCN(CC)CCCCNCc1cc(C2NCCCN2C)ccn1` (centres unmarked) [Compound 68, [4-(diethylamino)butyl]({[4-(1-methyl-1,3-diazinan-2-yl)pyridin-2-yl]methyl})amine], the results for the IC50 on KDM4C (JMJD2C) and at KDM5B (PLU-1) were 250 to 2500 nM and < 250 nM, respectively.
Consider `CN(C)CCNCc1ccnc(CNCCCN(C)Cc2ccccc2)c1` [Compound 18, benzyl[3-({[4-({[2-(dimethylamino)ethyl]-amino}methyl)pyridin-2-yl]methyl}-amino)propyl]-methylamine], for which the IC50 at KDM6B (JMJD3) is > 2500 nM; on KDM4B (JMJD2B), > 2500 nM; on KDM4C (JMJD2C), > 2500 nM; at KDM5B (PLU-1) it was 250 to 2500 nM; on KDM7 (PHF8) it was > 2500 nM.
With `COc1ccccc1CN1CCC(NC(=O)CNCc2cc(CNC3CC3)ccn2)CC1` [Compound 20, 2-[({4-[(cyclopropylamino)-methyl]pyridin-2-yl}methyl)amino]-N-{1-[(2-methoxyphenyl)methyl]-piperidin-4-yl}acetamide], the concentration for half-maximal inhibition (IC50) on KDM6B (JMJD3) was > 2500 nM; on KDM4B (JMJD2B), < 250 nM; on KDM4C (JMJD2C), 250 to 2500 nM; at KDM5B (PLU-1), < 250 nM; at KDM7 (PHF8) it was < 250 nM.
As for `O=Cc1ccnc(CNCC(=O)NC2CCN(Cc3ccccc3)C2)c1` (centres unmarked) [Compound 113, N-(1-benzylpyrrolidin-3-yl)-2-{[(4-formylpyridin-2-yl)methyl]amino}-acetamide], the IC50 at KDM6B (JMJD3) is > 2500 nM; on KDM4B (JMJD2B), < 250 nM; at KDM4C (JMJD2C) it was 250 to 2500 nM; at KDM5B (PLU-1), < 250 nM; at KDM7 (PHF8), > 2500 nM.
Turning to `O=Cc1ccnc(CNCCCCN(Cc2ccccc2)C2CC2)c1` [Compound 109, 2-[({4-[benzyl-(cyclopropyl)amino]-butyl}amino)methyl]-pyridine-4-carbaldehyde], the IC50 on KDM4B (JMJD2B) was < 250 nM; on KDM4C (JMJD2C), 250 to 2500 nM; on KDM5B (PLU-1), < 250 nM; on KDM7 (PHF8), > 2500 nM.
In the case of `CN(C)CCCCNCc1cc(CN)ccn1` [Compound 2, [2-({[4-(dimethylamino)butyl]-amino}methyl)pyridin-4-yl]methanamine], the IC50 at KDM6B (JMJD3), on KDM4B (JMJD2B), at KDM4C (JMJD2C), on KDM5B (PLU-1) and on KDM7 (PHF8) was > 2500 nM each time.
Take `COC(=O)CNCc1cc(/C=N/C2CC2)ccn1` [Compound 59, methyl 2-[({4-[N-cyclopropyl-carboximidoyl]pyridin-2-yl}methyl)amino]-acetate]: the IC50 at KDM6B (JMJD3) is > 2500 nM; on KDM4B (JMJD2B) it was < 250 nM; on KDM4C (JMJD2C), 250 to 2500 nM; at KDM5B (PLU-1) it was < 250 nM; on KDM7 (PHF8) it was 250 to 2500 nM.
On to `CCN(CCN(C)C)C(=O)CN(Cc1cc(CNC(=O)C(F)(F)F)ccn1)C(=O)C(F)(F)F` [Compound 26, N-[(2-{[N-({[2-(dimethylamino)ethyl]-(ethyl)carbamoyl}-methyl)-2,2,2-trifluoroacetamido]-methyl}pyridin-4-yl)methyl]-2,2,2-trifIuoroacetamide], for which the IC50 on KDM4C (JMJD2C) and at KDM5B (PLU-1) was > 2500 nM in each case.
For the compound `COCCNCc1ccnc(CNCCCN(C)Cc2ccccc2)c1` [Compound 19, benzyl(3-{[(4-{[(2-methoxyethyl)amino]-methyl}pyridin-2-yl)methyl]amino}-propyl)methylamine], the IC50 was > 2500 nM on KDM6B (JMJD3); > 2500 nM at KDM4B (JMJD2B); > 2500 nM on KDM4C (JMJD2C); 250 to 2500 nM at KDM5B (PLU-1); > 2500 nM at KDM7 (PHF8).
